Reference: PMC6389962 (Nature Communications, 2019)
Starred links: 1 amine or outer side, 2 acyl side, 3 side chain; linkers in the order of their positions; H or OH if unused. Positions of bridges follow the written chain, without caps; N, C: chain ends. Residues, ends and D or L forms follow the SMILES beside them. Chains are numbered I, II in the order given. X3 = C[C@@H](CNC(=O)[*:1])NC(=O)NC[C@H](CCC(=O)O)NC(=O)NC[C@H](Cc1ccc(O)cc1)N[*:2]

How the values were obtained:
db/db mice = experiment: Blood glucose study in db/db mice; format: in vivo, mouse; settings: n = 5, 200 μg kg−1 (50 nmol kg−1) intraperitoneal, fed
Source text: Data are mean ± SEM. […] Source data are provided as a Source Data file

mouse GLP-1 receptor [1] = biological target: T1, mouse GLP-1 receptor (Mus musculus, UniProt O35659)
T1 sequence (O35659 22-463): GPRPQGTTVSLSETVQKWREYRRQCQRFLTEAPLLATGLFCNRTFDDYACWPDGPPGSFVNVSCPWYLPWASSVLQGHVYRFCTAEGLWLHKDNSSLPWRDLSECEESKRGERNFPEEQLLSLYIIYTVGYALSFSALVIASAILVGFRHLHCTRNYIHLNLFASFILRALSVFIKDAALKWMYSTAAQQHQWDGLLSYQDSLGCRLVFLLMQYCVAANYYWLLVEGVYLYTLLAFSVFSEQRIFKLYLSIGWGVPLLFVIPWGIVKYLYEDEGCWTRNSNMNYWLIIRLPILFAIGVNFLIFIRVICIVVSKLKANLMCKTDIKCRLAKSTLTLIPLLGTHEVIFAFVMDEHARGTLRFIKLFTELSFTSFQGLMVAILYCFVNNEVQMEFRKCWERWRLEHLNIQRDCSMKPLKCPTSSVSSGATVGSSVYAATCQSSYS

in vitro [2] = settings: mouse, plasma, pH 7.4, % remaining analogue
Protocol: The oligomer was then diluted 1/50 with a solution of plasma/PBS pH 7.4 (1:1) to afford a final concentration of 5 µM and incubated at 37 °C (4 µL of the stock solution was diluted with 196 µL of plasma/PBS, pH 7.4, 1:1). Each compound was also incubated in the absence of plasma (196 µL of H2O/PBS, pH 7.4, 1:1). At the indicated time (20 min and 60 min) an aliquot of 70 µL was removed from each experimental reaction and pipetting into 175 µL of acetonitrile at 0 °C to quench the reaction (t = 0 min was determined using the reaction without plasma). The samples were frozen at –80 °C before analysis. The frozen samples were defrosted, stirred with a vortex 5 min and finally centrifuged 5 min at 16 °C (1500 × g). The supernatant was analysed by LC-MS. The time course of oligomer degradation was determined by integrating the area of the peak in the extracted ion chromatogram.
Supplementar y Figur e 2 : Mouse plasma degradation assay. […] Data are
mean ± SEM, n = 4. Source data are provided as a Source Data file (T able 2 tab).
Supplementar y Figur e 3.
Data are mean ± SEM, n = 3.
Source data are provided as a Source Data file […]

mouse GLP-1 receptor [3] = biological target: T1, mouse GLP-1 receptor; experiment: cell-based
in vitro [4] = settings: isolated enzyme neprilysin, pH 8
Protocol: Stock solutions of the oligomers were prepared at a concentration of 400 µM in a solution of 50 mM HEPES buffer, 50 mM NaCl, 0.05% Tween-80, pH 8.0. Stock solution of NEP 24.11 was prepared at a concentration of 100 µg mL^−1 in water. Stability of oligomers to NEP 24.11 was assessed by conducting protease reaction in a 96-well plates at 20 °C. […] Each compound was also incubated in the absence of the enzyme (12 µL of HEPES buffer and 38 µL of oligomer). […] A portion of the quenched reaction solution was analysed by HPLC. The time course of peptide degradation was determined by integrating the area of each peak in a series of HPLC traces.

normal mice (C57BL/6J) = experiment: Blood glucose study in normal fed mice; format: in vivo, mouse; set-up: key to In vivo activity (indicator): + active; +++: + + + more active
Protocol: In the first study, we evaluated the effect of the analogues on the blood glucose concentration of normal mice (Fig. 3). The fed mice were treated with the analogues and their blood glucose concentration was monitored before and after dosing for 6 h. […] Indeed, a decrease of blood glucose concentration is observed after 30 min and the effect is preserved for 4 h after dosing.
Fig. 3 Blood glucose study in mice. a–c Blood glucose concentration in normal mice (C57BL/6J, male, 20–25 g, n = 3) before and after dosing: 5 μg per mouse (50 nmol kg^−1) i.v. Formulation: 20 μg mL^−1 in PBS 1×. The dosing was done at T0. Data are mean ± SEM. […] Source data are provided as a Source Data file
After the acclimation period (at least 5 days), mice (male C57BL/6J mice (Charles River laboratories) 8 weeks old, 20–25 g) were randomized into 10 groups (n = 3 per group) according to their body weight. They were acutely treated via i.v. route at 10 am (5 µg per mouse). Blood glucose was measured before dosing and at 30 min, 1, 2, 4, 6 h after dosing in fed conditions.

Q: Which “activity on blood glucose 48 h after a single dose” value (db/db mice) does the source give for `CCCCCCCCCCCCCCCC(=O)N[C@@H](CCC(=O)NCCCC[C@H](NC(=O)[C@H](C)NC(=O)[C@H](C)NC(=O)[C@H](CCC(N)=O)NC(=O)CNC(=O)[C@H](CCC(=O)O)NC(=O)[C@H](CC(C)C)NC(=O)[C@H](Cc1ccc(O)cc1)NC(=O)[C@H](CO)NC(=O)[C@H](CO)NC(=O)[C@@H](NC(=O)[C@H](CC(=O)O)NC(=O)[C@H](CO)NC(=O)[C@@H](NC(=O)[C@H](Cc1ccccc1)NC(=O)[C@@H](NC(=O)CNC(=O)[C@H](CCC(=O)O)NC(=O)[C@H](C)NC(=O)[C@@H](N)Cc1c[nH]cn1)[C@@H](C)O)[C@@H](C)O)C(C)C)C(=O)N[C@@H](CCC(=O)O)C(=O)N[C@@H](Cc1ccccc1)C(=O)N[C@H](C(=O)N[C@@H](C)C(=O)N[C@@H](Cc1c[nH]c2ccccc12)C(=O)N[C@@H](CC(C)C)C(=O)N[C@H](C(=O)N[C@@H](CCCNC(=N)N)C(=O)NCC(=O)N[C@@H](CCCNC(=N)N)C(=O)NCC(=O)O)C(C)C)[C@@H](C)CC)C(=O)O` [liraglutide] here?
A: no more significant activity

Q: What does the source list for `CC[C@H](C)[C@H](NC(=O)[C@H](Cc1ccccc1)NC(=O)[C@H](CCC(=O)O)NC(=O)[C@H](CCCCN)NC(=O)[C@H](C)NC(=O)[C@H](C)NC(=O)NC[C@H](C)NC(=O)NC[C@H](CCC(=O)O)NC(=O)NC[C@H](Cc1ccc(O)cc1)NC(=O)[C@H](Cc1ccc(O)cc1)NC(=O)[C@H](CO)NC(=O)[C@H](CO)NC(=O)[C@@H](NC(=O)[C@H](CC(=O)O)NC(=O)[C@H](CO)NC(=O)[C@@H](NC(=O)[C@H](Cc1ccccc1)NC(=O)[C@@H](NC(=O)CNC(=O)[C@H](CCC(=O)O)NC(=O)CNC(=O)[C@@H](N)Cc1c[nH]cn1)[C@@H](C)O)[C@@H](C)O)C(C)C)C(=O)N[C@@H](C)C(=O)N[C@@H](Cc1c[nH]c2ccccc12)C(=O)N[C@@H](CC(C)C)C(=O)N[C@H](C(=O)N[C@@H](CCCCN)C(=O)NCC(=O)N[C@@H](CCCNC(=N)N)C(=O)NCC(N)=O)C(C)C` [compound 9, GG2[Y^uE^uA^u]^14-17] (I: AAKEFIAWLVKGRG-NH2 / II: H-HGEGTFTSDVSSY; linker I:N-II:C via X3)?
A: LogEC50 (best-fit value) (mouse GLP-1 receptor [1]): -9.749; Potency (%), percentage of potency compare to GLP-1-G^2 (mouse GLP-1 receptor [1]; cAMP production, from EC50): 135%; remaining at 20 min, 5 µM (in vitro [2]): 33.1%; remaining at 1 h, 5 µM (in vitro [2]): 11.7%; EC50 (mouse GLP-1 receptor [3]): 0.18 nM; Emax (mouse GLP-1 receptor [3]; read-out: Top (best-fit value), variable slope four-parameter fit, unconstrained, 14: experiment 1): 88.2%; half-life (in vitro [4]): 3 h; In vivo activity (indicator) (normal mice (C57BL/6J); mice, 50 nmol kg−1 i.v.): +; effect on blood glucose concentration (normal mice (C57BL/6J); normal fed C57BL/6J mice, n = 3, 5 μg per mouse (50 nmol kg−1) i.v., monitored 6 h): showed efficacy but no improvement
